Holding throughout (assay): biochemical
Common to all, as to parameters: KinomeScan competition binding panel (DiscoveRx), percent of control at 1 uM
Holding throughout (conditions): read-out: Percent Control

One assay has as its target CAMK2B (Homo sapiens, UniProt Q13554). The procedure, abridged: (§1)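 KinomeScan technology used to profile binding across a panel of 456 kinases and mutants.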
The next assay addresses T1, LKB1 (Homo sapiens, UniProt Q15831).
T1 construct: gene STK11
The procedure, abridged:
as §1

A further assay deals with BRSK2 (Homo sapiens, UniProt Q8IWQ3). The procedure, abridged:
as §1

For another assay, the target named is KIT(L576P) (Homo sapiens, UniProt P10721, L576P). The procedure, abridged: as §1
KIT(L576P), sequence (P10721 whole entry L576P): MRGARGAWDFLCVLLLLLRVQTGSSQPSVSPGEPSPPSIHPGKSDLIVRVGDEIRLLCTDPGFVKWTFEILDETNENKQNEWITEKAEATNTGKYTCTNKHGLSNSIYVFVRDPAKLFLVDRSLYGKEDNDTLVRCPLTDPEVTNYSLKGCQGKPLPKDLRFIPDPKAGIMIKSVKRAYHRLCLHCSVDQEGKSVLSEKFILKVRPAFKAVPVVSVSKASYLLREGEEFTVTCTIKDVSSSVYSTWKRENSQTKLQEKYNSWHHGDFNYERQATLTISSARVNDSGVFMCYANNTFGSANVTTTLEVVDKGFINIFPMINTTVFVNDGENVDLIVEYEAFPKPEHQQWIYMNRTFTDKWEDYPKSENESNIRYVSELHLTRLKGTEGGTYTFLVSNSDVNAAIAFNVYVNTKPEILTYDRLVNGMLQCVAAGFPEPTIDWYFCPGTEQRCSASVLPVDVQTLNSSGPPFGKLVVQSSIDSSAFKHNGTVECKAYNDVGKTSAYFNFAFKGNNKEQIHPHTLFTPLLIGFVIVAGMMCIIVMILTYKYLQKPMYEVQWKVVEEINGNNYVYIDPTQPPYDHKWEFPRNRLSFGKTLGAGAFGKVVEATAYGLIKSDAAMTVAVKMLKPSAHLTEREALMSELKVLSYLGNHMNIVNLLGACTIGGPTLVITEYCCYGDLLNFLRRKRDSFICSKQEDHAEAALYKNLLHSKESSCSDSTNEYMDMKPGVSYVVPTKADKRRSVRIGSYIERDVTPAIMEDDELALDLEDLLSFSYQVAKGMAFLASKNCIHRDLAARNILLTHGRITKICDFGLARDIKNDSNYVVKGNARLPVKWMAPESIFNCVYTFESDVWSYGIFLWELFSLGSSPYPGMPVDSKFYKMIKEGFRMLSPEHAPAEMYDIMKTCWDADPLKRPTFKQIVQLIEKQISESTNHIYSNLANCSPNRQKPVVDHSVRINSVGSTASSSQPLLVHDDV
Another assay has as its target KIT(V559D,V654A) (Homo sapiens, UniProt P10721, V559D/V654A). The procedure, abridged: as §1
A further assay addresses PIK3CA(M1043I) (Homo sapiens, UniProt P42336, M1043I). In short, it runs like this: as §1
A further assay concerns the target MAPKAPK2 (Homo sapiens, UniProt P49137). The procedure, abridged:
as §1

Another assay deals with T2, ERK2 (Homo sapiens, UniProt P28482).
T2 construct: gene MAPK1
The procedure, abridged: as §1

Another assay concerns the target T3, IKK-alpha (Homo sapiens, UniProt O15111).
T3 construct: gene CHUK
In short, it runs like this: as §1

The target of another assay is LATS1 (Homo sapiens, UniProt O95835). The procedure, abridged: as §1
The target in another assay is PRKD3 (Homo sapiens, UniProt O94806). In short, it runs like this: as §1
Assay [1] has as its target T4, ABL1(H396P)-phosphorylated (Homo sapiens, UniProt P00519, H396P).
T4 construct: phosphorylated
In short, it runs like this:
as §1

The target in a further assay is LATS2 (Homo sapiens, UniProt Q9NRM7). The procedure, abridged:
as §1

For a further assay, the target named is PHKG1 (Homo sapiens, UniProt Q16816). The procedure, abridged:
as §1

In another assay the target is BRAF(V600E) (Homo sapiens, UniProt P15056, V600E). In short, it runs like this: as §1
In another assay the target is EGFR(L858R) (Homo sapiens, UniProt P00533, L858R). In short, it runs like this: as §1
EGFR(L858R), sequence (P00533 whole entry L858R): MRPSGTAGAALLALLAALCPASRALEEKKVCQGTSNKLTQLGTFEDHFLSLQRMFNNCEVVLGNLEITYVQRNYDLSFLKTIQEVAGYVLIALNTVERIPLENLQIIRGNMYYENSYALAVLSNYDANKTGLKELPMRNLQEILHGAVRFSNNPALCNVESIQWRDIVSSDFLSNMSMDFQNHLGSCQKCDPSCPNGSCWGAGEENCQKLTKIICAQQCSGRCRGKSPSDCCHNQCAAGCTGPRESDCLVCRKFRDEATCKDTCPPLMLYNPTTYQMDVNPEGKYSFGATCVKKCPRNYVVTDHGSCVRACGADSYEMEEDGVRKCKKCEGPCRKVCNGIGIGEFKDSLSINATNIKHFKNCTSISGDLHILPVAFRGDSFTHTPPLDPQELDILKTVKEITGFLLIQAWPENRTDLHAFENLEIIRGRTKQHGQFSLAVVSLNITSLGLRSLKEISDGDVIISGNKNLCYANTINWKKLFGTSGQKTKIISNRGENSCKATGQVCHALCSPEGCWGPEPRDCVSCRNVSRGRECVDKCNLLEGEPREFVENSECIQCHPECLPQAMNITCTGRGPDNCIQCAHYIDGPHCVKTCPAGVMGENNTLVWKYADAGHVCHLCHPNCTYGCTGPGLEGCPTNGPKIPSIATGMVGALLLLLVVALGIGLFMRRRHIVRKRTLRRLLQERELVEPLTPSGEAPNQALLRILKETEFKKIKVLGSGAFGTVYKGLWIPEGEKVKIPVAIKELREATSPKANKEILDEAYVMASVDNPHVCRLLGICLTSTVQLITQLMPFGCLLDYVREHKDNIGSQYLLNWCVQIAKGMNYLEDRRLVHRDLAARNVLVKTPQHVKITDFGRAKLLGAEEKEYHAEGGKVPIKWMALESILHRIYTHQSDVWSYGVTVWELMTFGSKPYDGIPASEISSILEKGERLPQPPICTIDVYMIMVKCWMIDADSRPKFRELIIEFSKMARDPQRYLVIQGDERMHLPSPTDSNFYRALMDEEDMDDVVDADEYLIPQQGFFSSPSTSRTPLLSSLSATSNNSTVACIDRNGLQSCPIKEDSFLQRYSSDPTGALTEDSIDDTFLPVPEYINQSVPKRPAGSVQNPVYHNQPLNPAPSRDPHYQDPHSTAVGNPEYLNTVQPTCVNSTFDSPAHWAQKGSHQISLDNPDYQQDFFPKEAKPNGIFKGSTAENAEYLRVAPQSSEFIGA
In assay [2] the target is T5, ABL1(Y253F)-phosphorylated (Homo sapiens, UniProt P00519, Y253F).
T5 construct: phosphorylated
In short, it runs like this: as §1

A further assay addresses T6, ASK2 (Homo sapiens, UniProt O95382).
T6 construct: gene MAP3K6
In short, it runs like this: as §1

The target in a further assay is SBK1 (Homo sapiens, UniProt Q52WX2). The procedure, abridged: as §1
SBK1, sequence (Q52WX2 whole entry): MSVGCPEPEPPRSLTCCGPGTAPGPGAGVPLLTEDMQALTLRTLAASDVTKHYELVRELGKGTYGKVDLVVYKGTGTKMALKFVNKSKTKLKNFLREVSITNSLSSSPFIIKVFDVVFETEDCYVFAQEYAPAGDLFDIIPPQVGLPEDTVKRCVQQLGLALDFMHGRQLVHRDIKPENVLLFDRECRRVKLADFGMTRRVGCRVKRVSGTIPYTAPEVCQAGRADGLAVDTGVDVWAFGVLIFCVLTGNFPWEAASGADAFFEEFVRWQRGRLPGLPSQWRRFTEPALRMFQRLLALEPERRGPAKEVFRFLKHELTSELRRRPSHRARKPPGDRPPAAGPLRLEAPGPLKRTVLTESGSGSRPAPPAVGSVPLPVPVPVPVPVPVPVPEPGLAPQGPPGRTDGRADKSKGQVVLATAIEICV
Another assay addresses PIM2 (Homo sapiens, UniProt Q9P1W9). The procedure, abridged:
as §1

Another assay concerns the target CLK1 (Homo sapiens, UniProt P49759). In short, it runs like this:
as §1

A further assay concerns the target EPHA4 (Homo sapiens, UniProt P54764). In short, it runs like this: as §1
In assay [3] the target is T7, ABL1(F317I)-nonphosphorylated (Homo sapiens, UniProt P00519, F317I).
T7 construct: nonphosphorylated
In short, it runs like this: as §1

The target of the next assay is RIPK2 (Homo sapiens, UniProt O43353). In short, it runs like this: as §1

MAPKAPK2, sequence (P49137 whole entry): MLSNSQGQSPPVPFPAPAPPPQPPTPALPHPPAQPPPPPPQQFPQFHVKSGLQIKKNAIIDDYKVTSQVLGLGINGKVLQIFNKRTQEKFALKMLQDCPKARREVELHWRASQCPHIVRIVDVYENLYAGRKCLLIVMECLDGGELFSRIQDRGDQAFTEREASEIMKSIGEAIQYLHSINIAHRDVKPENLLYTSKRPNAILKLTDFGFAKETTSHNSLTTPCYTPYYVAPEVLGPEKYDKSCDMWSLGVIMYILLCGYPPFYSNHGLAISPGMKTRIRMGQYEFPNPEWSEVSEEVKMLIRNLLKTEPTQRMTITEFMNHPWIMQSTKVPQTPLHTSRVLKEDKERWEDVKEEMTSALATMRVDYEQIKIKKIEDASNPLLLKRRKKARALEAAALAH
BRSK2, sequence (Q8IWQ3 whole entry): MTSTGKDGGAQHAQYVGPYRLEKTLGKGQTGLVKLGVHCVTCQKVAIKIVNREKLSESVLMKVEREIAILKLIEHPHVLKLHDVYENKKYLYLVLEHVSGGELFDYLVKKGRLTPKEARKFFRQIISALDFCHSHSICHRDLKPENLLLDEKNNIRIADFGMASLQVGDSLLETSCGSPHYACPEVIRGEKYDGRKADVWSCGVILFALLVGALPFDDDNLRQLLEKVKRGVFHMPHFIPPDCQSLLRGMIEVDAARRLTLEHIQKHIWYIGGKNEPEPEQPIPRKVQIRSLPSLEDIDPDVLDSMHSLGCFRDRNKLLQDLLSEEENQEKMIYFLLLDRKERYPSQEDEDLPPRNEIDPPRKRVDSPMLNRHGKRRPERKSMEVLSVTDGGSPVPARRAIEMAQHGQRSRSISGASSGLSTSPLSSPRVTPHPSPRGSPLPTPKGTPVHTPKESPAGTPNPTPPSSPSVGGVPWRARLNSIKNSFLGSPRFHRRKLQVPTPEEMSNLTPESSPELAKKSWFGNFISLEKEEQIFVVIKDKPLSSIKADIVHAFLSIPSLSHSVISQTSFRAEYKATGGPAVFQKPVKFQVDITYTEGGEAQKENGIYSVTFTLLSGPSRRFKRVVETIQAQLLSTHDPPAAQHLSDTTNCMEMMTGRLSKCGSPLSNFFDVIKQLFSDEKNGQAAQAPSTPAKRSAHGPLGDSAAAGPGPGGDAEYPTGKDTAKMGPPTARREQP
CLK1, sequence (P49759 whole entry): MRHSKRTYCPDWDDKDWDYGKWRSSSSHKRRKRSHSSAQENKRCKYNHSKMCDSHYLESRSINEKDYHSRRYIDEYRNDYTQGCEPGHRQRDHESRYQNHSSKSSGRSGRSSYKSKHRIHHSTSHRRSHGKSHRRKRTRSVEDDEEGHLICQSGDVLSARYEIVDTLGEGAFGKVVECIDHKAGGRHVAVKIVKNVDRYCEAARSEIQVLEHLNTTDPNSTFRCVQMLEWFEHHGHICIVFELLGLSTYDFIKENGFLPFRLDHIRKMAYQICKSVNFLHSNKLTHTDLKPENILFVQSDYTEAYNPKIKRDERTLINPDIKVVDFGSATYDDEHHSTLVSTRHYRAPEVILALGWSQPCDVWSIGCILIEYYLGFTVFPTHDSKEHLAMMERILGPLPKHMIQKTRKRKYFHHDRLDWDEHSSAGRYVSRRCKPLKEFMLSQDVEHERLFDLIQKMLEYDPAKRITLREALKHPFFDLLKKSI
T3 sequence (O15111 whole entry): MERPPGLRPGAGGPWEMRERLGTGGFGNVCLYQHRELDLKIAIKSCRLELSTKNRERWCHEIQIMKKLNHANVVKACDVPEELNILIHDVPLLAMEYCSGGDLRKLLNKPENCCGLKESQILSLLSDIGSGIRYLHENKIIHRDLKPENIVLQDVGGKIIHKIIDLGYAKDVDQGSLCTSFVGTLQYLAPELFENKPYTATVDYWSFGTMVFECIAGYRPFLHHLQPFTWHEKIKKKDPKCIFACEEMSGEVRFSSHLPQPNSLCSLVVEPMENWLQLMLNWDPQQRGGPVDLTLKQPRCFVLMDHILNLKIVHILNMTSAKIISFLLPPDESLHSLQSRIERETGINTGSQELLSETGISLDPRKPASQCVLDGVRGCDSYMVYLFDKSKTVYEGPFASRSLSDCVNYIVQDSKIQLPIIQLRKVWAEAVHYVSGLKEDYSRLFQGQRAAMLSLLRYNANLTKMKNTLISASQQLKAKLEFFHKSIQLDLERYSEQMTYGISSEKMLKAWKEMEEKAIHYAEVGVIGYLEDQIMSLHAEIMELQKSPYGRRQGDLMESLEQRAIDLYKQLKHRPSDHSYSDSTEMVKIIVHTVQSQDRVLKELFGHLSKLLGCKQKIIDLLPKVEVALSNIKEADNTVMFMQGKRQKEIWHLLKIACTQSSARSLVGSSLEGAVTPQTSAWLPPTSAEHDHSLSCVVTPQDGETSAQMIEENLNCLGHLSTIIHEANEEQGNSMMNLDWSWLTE
KIT(V559D,V654A), sequence (P10721 whole entry V559D/V654A): as the sequence (P10721 whole entry L576P) above, with V559D, P576L, V654A counted along it

With `C=CC(=O)Nc1cc(-n2c(=O)ccc3cnc4ccc(-n5cccn5)cc4c32)ccc1C` [CHMFL-BTK-11], the remaining binding at 1 µM stood at 100% at CAMK2B; 91% on LKB1; 86% on BRSK2; 100% at KIT(L576P); 100% at KIT(V559D,V654A); 99% at PIK3CA(M1043I). Further, the remaining binding at 1 µM on MAPKAPK2 was found to be 99%; at ERK2, 100%; at IKK-alpha, 96%; on LATS1, 99%; at PRKD3 it was 100%; in assay [1] it was 100%. Also, the remaining binding at 1 µM worked out at 100% on LATS2; 100% at PHKG1; 100% on BRAF(V600E); 70% at EGFR(L858R); 89% in assay [2]; 100% at ASK2. The remaining binding at 1 µM on SBK1 is 81%; on PIM2 it was 100%; on CLK1 it was 92%; on EPHA4, 100%; in assay [3] it was 100%; on RIPK2 it was 100%.

(Values after publication PMC5428509, “Irreversible inhibition of BTK kinase by a novel highly selective inhibitor CHMFL-BTK-11 suppresses inflammatory response in rheumatoid arthritis model” (Scientific Reports, 2017).)
